{
  "source": "patent US9987294B2",
  "about": "“Mitochondria-targeted anti-tumor agents” (University of Massachusetts, priority 2007, dated 2018)",
  "key": {"[1]": {"system": "lung adenocarcinoma H460 cells", "assay": "Cell viability by MTT, H460", "format": "cell-based, human", "method": "(§1) Modulation of cell viability was determined by MTT (Kang et al., “Regulation of tumor cell mitochondrial homeostasis by an organelle-specific Hsp90 chaperone network,” Cell, 131:257-270 (2007)). For determination of apoptosis, cells were analyzed for caspase activity (DEVDase activity) and plasma membrane integrity (propidium iodide) using CaspaTag (Intergen, Burlington, Mass.), by multiparametric flow cytometry (Kang et al., “Regulation of tumor cell mitochondrial homeostasis by an organelle-specific Hsp90 chaperone network,” Cell, 131:257-270 (2007))."}, "HeLa cell mitochondria": {"system": "HeLa cell mitochondria", "assay": "Cytochrome c and Smac release from isolated tumor mitochondria (Western blotting)", "format": "biochemical, human", "method": "(§2) Tumor cell types were treated with controls or the various Hsp90 antagonists, and cytosolic extracts were harvested at increasing time intervals between 5-30 minutes and analyzed by Western blotting. For experiments in a cell-free system, purified mitochondria (20 μg) were suspended in 500 μl of SB buffer (0.2 M sucrose, 10 mM Tris-MOPS, pH 7.4, 5 mM succinate, 1 mM sodium phosphate, 10 μM EGTA-Tris, and 2 μM rotenone). Samples were treated with controls or the various Hsp90 antagonists for 20 minutes at 22° C. At the end of each incubation reaction, mitochondria and supernatants were separated by centrifugation at 6,000×g for 10 minutes, and analyzed by Western blotting."}, "tumor mitochondria": {"system": "tumor mitochondria", "assay": "Cytochrome c release from drug-treated isolated tumor mitochondria", "format": "biochemical", "method": "as §2, with “Samples were treated with controls or the various Hsp90 antagonists for 20 minutes at 22° C.” left out\n(§3) The fluorescence intensity after treatment with 2 mM CaCl2 corresponded to a fully depolarized state. Alternatively, H460 cells were labeled with the fluorescent dye JC-1 (Molecular Probes), and analyzed for changes in red/green (F1-2/F1-1) fluorescence ratio after treatment with the various agents, by multiparametric flow cytometry. Cytochrome c content in pellets or supernatants of drug-treated isolated mitochondria was determined by Western blotting."}, "HeLa cells": {"system": "HeLa cells", "assay": "Cytochrome c release into the cytosol of treated tumor cells (Western blotting)", "format": "cell-based, human"}, "Raji cells": {"system": "Raji cells", "assay": "Mitochondrial membrane potential in JC-1-loaded cells (flow cytometry)", "format": "cell-based, human", "details": "within five minutes of addition", "method": "Raji cells were treated with Shepherdin or control scrambled peptidomimetic (100 μM) or 17-AAG (5 μM), loaded with the mitochondrial membrane potential-sensitive fluorescent dye JC-1, and analyzed for changes in green/red fluorescence ratio by flow cytometry. For experiments in a cell-free system, purified mitochondria isolated from primary normal cells, various tumor cells types, or normal mouse organs were suspended in SB buffer. […] For these experiments, TMRM-loaded mitochondria in SB buffer were allowed to reach stable fluorescence, which was set as fully polarized state (maximum membrane potential). The fluorescence intensity after treatment with 2 mM CaCl2 was set as minimum membrane potential (fully depolarized state). Changes in fluorescence intensity after each treatment were plotted as a ratio between maximum and minimum membrane potential."}, "[2]": {"system": "isolated tumor mitochondria", "assay": "Inner membrane potential of TMRM-loaded tumor mitochondria", "format": "biochemical", "method": "as §3"}, "[3]": {"system": "H460 lung adenocarcinoma xenograft tumors", "assay": "Xenograft tumor growth, H460", "format": "in vivo, mice", "details": "i.p.; G4 and 17-AAG 2-3 mg/kg twice daily, G1 30-50 mg/Kg daily, TPP 10 mg/Kg daily", "method": "To create the models used in this example, HL60 (10×10^6) or H460 (4×10^6) cells suspended in sterile PBS (200 μl) were injected subcutaneously into both flanks of 10 week-old CB17 SCID/beige (Taconic Farms) immunocompromised female mice. Alternatively, MDA-MB-231 cells (5×10^6) suspended in 200 μl of 50% Matrigel (BD Biosciences) were used for subcutaneous injection in CB17 SCID/beige mice. When superficial tumors reached volumes of 100-150 mm^3, animals were randomized in two groups (2 tumors/mouse, 3 animals/group), and treated with vehicle (DMSO) or Gamitrinib dissolved in 20% Cremophor EL (Sigma) in PBS by intraperitoneal (i.p.) injection. Gamitrinib-G4 was used as sterile i.p. injections with the following schedules: HL60 xenografts, 2 mg/Kg twice daily; H460 xenografts, 2 mg/kg twice daily for d 0, 2.5 mg/kg twice daily for d 1, 3.0 mg/kg twice daily for the duration of treatment; MDA-MB-231 xenografts, 2 mg/Kg twice daily for d 0-2, 2.5 mg/Kg twice daily for d 3-5, and 3 mg/Kg twice daily throughout the rest of the treatment. 17-AAG was dissolved in 20% Cremophor EL and used as systemic i.p. injections with the same dose-escalating regimen as Gamitrinib-G4 in H460 xenograft studies. Gamitrinib-G1 was used with following schedules: 30 mg/Kg daily (d 0-2), and 50 mg/Kg daily for the rest of treatment. Gamitrinib-TPP was used as i.p. injections at 10 mg/Kg daily throughout the duration of the experiment. Tumor measurements were taken daily with a caliper, and tumor volume was calculated with the formula ([length in millimeters]×[width in millimeters]^2)/2. Mice in the various treatment groups were weighed at the beginning and at the end of each experiment."}, "SKBr3 cells": {"system": "SKBr3 cells", "assay": "Dead cells by Trypan blue staining, SKBr3", "format": "cell-based", "details": "10 μM"}, "[4]": {"system": "breast adenocarcinoma SKBr3 cells", "assay": "Metabolic activity by MTT, SKBr3", "format": "cell-based", "details": "10 μM; by 48 hours and throughout a 96-hours interval", "method": "as §1"}, "[5]": {"system": "Akt, Chk1 and Hsp70 in HeLa cells", "assay": "Hsp90 client protein and Hsp70 levels in treated cells (Western blotting)", "format": "cell-based, human", "details": "5 μM for 24 hours", "method": "In other experiments, chaperone-dependent GST-Chk1 reconstitution was determined as described previously (Arlander et al., “Chaperoning checkpoint kinase 1 (Chk1), an Hsp90 client, with purified chaperones,” J Biol Chem, 281:2989-2998 (2006)). Briefly, each sample contained 0.7 μg of resin-bound GST-Chk1 (residues 1-265), 1 μg of purified human Hsp90α, and the following amounts of other purified chaperone proteins: 10 μg Hsp70, 2 μg Hdj1, 2 μg p50^cdc37, 0.06 units CK2, 2.5 μg p60^Hop. Optical densities due to Chk1-dependent phosphorylation of Cdc25 in the presence and absence of Gamitrinib or 17-AAG were determined and plotted as fold activation above the sample lacking added chaperone proteins. In some experiments, HeLa cells were treated with Gamitrinibs (G1-G4) or 17-AAG (5 μM) for 24 hours, and isolated extracts were analyzed for modulation of Akt or Hsp70 expression, by Western blotting"}, "tumor cells": {"system": "tumor cells", "assay": "Cell viability by MTT, tumor cell types", "format": "cell-based"}},
  "note": "Entries after “also recorded” stand apart in the source; their conditions may differ.",
  "data": [
    {"smiles": "C=CCNC1=C2C[C@@H](C)C[C@H](OC)[C@H](O)[C@@H](C)/C=C(\\C)[C@H](OC(N)=O)[C@@H](OC)/C=C\\C=C(/C)C(=O)NC(=CC1=O)C2=O", "note": "[Gamitrinib 17-AAG, 17-allylamino-demethoxygeldamycin]", "values": [
      {"measurement": "cell viability", "setting": "[1]; 3 hour exposure", "result": "had no effect"},
      {"measurement": "cell viability", "setting": "[1]; 24 hours", "result": "partial reduction in cell viability or cell proliferation"},
      {"measurement": "cytochrome c or Smac release from isolated tumor mitochondria", "setting": "HeLa cell mitochondria; HeLa cell mitochondria", "result": "did not induce cytochrome c or Smac release; also recorded: had no effect on mitochondrial integrity"},
      {"measurement": "discharge of mitochondrial cytochrome c and Smac in the supernatant", "setting": "HeLa cell mitochondria; high concentrations (20 μM)", "result": "a small discharge of mitochondrial cytochrome c, but not Smac"},
      {"measurement": "discharge of mitochondrial cytochrome c", "setting": "tumor mitochondria; 20 minutes", "result": "ineffective"},
      {"measurement": "cytochrome c release from mitochondria", "setting": "tumor mitochondria; 3 hours (FIG. 16D)", "result": "had no effect on cytochrome c release"},
      {"measurement": "cytochrome c release into the cytosol", "setting": "HeLa cells", "result": "had no effect on cytochrome c release over a wide range of concentrations"},
      {"measurement": "mitochondrial membrane potential in tumor cells", "setting": "Raji cells", "result": "did not affect mitochondrial membrane potential in HeLa cells"},
      {"measurement": "mitochondrial inner membrane potential", "setting": "[2]", "result": "did not affect mitochondrial membrane potential"},
      {"measurement": "tumor growth", "setting": "[3]", "result": "had no effect on human lung cancer growth in mice"},
      {"measurement": "tumor cell killing (dead cells)", "setting": "SKBr3 cells", "result": "most SKBr3 cells treated with 17-AAG were still alive after 72 hours"},
      {"measurement": "metabolic activity", "setting": "[4]", "result": "comparably reduced metabolic activity"},
      {"measurement": "expression of the chaperone Hsp70", "setting": "[5]", "result": "increased expression of the chaperone Hsp70"},
      {"measurement": "levels of client proteins Chk1 and Akt", "setting": "[5]", "result": "destabilization of client proteins, Chk1 and Akt"},
      {"measurement": "tumor cell viability / killing", "setting": "tumor cells; 1 hour exposure, MTT", "result": "had no effect on tumor cell viability within the same kinetics"},
      {"measurement": "tumor cell killing", "setting": "tumor cells; prolonged exposure, 24 hours after treatment", "result": "partial cell killing; also recorded: modest anticancer activity"}
    ]}
  ]
}
